US20080021045A1, “7-Amino-5-Halopyrazolopyrimidines with a Fungicidal Action” (BAYER CROPSCIENCE AKTIENGESELLSCHSFT, priority 2003, published 2008)

Assay: logP determination by HPLC (EEC Directive 79/831 Annex V. A8)
Format: physicochemical
Conditions: gradient method, acetonitrile/0.1% aqueous phosphoric acid

chromatographic logP | SMILES
4.59 | CCC(C)c1c(Cl)nc2c(C#N)cnn2c1NC(C)C(C)C (stereo not drawn) [Example 1, 3-cyano-5-chloro-6-(sec-butyl)-7-[(S+)-3-methyl-2-butylamino]pyrazolo[1,5-a]pyrimidine]
4.17 | CCC(C)c1c(Cl)nc2c(C=O)cnn2c1NC(C)C(C)C (stereo not drawn) [Example 2, 3-formyl-5-chloro-6-(sec-butyl)-7-(3-methyl-2-butylamino)pyrazolo[1,5-a]pyrimidine]
3.27 | CCC(C)c1c(Cl)nc2c(C#N)cnn2c1Cl (stereo not drawn) [Example 30, 3-cyano-5,7-dichloro-6-(sec-butyl)pyrazolo[1,5-a]pyrimidine]
